What follows are compounds tested against T1, Human TRPC6 (Homo sapiens, UniProt Q9Y210) (assay: Evaluation of TRPC6 channel inhibitory activity (1), FLIPR Calcium 5 Assay Kit, OAG stimulation (Compound Nos. 1-1293)). Conditions: Human TRPC6 stably-expressing cells, OAG 30 μM, FLIPR Calcium 5 Assay Kit; read-out: Inhibitory activity (pIC50 class) (converted).
T1 construct: expressed in transfected cells
T1 sequence (Q9Y210 1-931): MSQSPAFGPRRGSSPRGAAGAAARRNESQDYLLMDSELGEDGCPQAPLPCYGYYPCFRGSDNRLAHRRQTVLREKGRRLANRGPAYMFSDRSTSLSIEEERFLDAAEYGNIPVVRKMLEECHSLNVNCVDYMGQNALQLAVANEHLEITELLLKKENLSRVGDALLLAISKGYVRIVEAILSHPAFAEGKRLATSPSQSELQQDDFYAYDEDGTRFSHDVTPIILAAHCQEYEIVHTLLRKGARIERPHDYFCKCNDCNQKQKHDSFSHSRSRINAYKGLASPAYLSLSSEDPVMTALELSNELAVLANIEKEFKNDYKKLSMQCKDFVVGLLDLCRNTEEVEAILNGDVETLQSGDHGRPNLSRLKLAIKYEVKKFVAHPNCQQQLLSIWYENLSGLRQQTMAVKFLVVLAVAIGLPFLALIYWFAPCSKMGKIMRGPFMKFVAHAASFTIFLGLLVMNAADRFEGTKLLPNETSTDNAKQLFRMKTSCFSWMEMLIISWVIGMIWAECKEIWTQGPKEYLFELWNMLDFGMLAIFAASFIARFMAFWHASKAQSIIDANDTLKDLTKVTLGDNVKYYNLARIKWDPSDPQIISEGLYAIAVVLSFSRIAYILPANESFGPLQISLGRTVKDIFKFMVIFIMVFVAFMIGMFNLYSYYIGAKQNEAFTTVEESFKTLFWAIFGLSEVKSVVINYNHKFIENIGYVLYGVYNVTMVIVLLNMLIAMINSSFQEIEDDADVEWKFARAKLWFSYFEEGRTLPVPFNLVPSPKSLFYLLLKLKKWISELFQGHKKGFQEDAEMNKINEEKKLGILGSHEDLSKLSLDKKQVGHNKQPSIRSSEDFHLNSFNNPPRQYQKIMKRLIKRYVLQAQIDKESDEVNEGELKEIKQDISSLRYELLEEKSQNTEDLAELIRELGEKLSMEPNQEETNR
Assay type: cell-based
Procedure: Evaluation of TRPC6 Channel Inhibitory Activity (1) (Compound Nos. 1-1293)
In order to investigate TRPC6 channel inhibitory activity of the compounds, evaluation was conducted using FLIPR® Calcium 5 Assay Kit (Molecular Devices) in accordance with the following procedure. Human TRPC6 stably-expressing cells were seeded in a 384-well black clear bottom plate at a density of 5×10^3/well and cultured in an incubator at 37° C. 5% CO2 for 24 hours. Thereafter, 25 μL of a Non Wash Dye Solution, prepared using Component A, 20 mM HEPES-HBSS and 250 mM probenecid, all of which are included in the kit, was added to each well, and the plate was incubated for 30 minutes. A volume of 12.5 μL of a compound solution was added into each well while the fluorescence was measured with FLIPR tetra. After 20 minutes, 12.5 μL of a 1-oleoyl-2-acetyl glycerol (OAG) solution was added at a final concentration of 30 μM. The difference between the minimum fluorescence intensity before the addition of the compound and the maximum fluorescence intensity after the addition of OAG was defined as a signal. An inhibition rate was calculated, assuming the average signal of wells without the compound as the inhibition rate of 0% and the average signal of wells without the compound and OAG as the inhibition rate of 100%. The calculated inhibition rate was analyzed by a four-parameter logistic regression to quantify the inhibition rate in the logarithm of the inverse of the effective concentration which gives a 50% inhibition rate (pIC50). The intensity was expressed by the following symbols (+, ++, +++).

| SMILES | IC50 [nM] |
| --- | --- |
| Cc1nc(Oc2cc(C#N)ccc2-c2ccc(CCN)cc2)cc(N2CC(F)(F)C(F)(F)C2)n1 [Compound 26, 4-[4-(2-aminoethyl)phenyl]-3-[2-methyl-6-(3,3,4,4-tetrafluoropyrrolidin-1-yl)pyrimidin-4-yl]oxybenzonitrile] | < 10 |
| Cc1nc(Oc2cc(C#N)ccc2-c2ccc(CCN)cc2)cc(N2CCCCCC2)n1 [Compound 27, 4-[4-(2-aminoethyl)phenyl]-3-[6-(azepan-1-yl)-2-methylpyrimidin-4-yl]oxybenzonitrile] | 10 to 1000 |
| Cc1nc(Oc2cc(C#N)ccc2-c2ccc(CCN)cc2)cc(-c2cccn2C)n1 [Compound 28, 4-[4-(2-aminoethyl)phenyl]-3-[2-methyl-6-(1-methylpyrrol-2-yl)pyrimidin-4-yl]oxybenzonitrile] | 10 to 1000 |
| Cc1nc(Oc2cc(C#N)ccc2-c2ccc(CCN)cc2)cc(-c2ccn(C)c2)n1 [Compound 29, 4-[4-(2-aminoethyl)phenyl]-3-[2-methyl-6-(1-methylpyrrol-3-yl)pyrimidin-4-yl]oxybenzonitrile] | 10 to 1000 |
| Cc1nc(Oc2cc(C#N)ccc2-c2ccc(CCN)cc2)cc(-c2cscn2)n1 [Compound 30, 4-[4-(2-aminoethyl)phenyl]-3-[2-methyl-6-(1,3-thiazol-4-yl)pyrimidin-4-yl]oxybenzonitrile] | < 10 |
| Cc1nc(Oc2cc(C#N)ccc2-c2ccc(CCN)cc2)cc(N2CCCOCC2)n1 [Compound 31, 4-[4-(2-aminoethyl)phenyl]-3-[2-methyl-6-(1,4-oxazepan-4-yl)pyrimidin-4-yl]oxybenzonitrile] | 10 to 1000 |
| Cc1nc(Oc2cc(C#N)ccc2-c2ccc(CCN)cc2)cc(-c2ccsc2)n1 [Compound 32, 4-[4-(2-aminoethyl)phenyl]-3-(2-methyl-6-thiophen-3-ylpyrimidin-4-yl)oxybenzonitrile] | < 10 |
| Cc1nc(Oc2cc(C#N)ccc2-c2ccc(CCN)cc2)cc(-c2cccs2)n1 [Compound 33, 4-[4-(2-aminoethyl)phenyl]-3-(2-methyl-6-thiophen-2-ylpyrimidin-4-yl)oxybenzonitrile] | < 10 |
| Cc1nc(Oc2cc(C#N)ccc2-c2ccc(CCN)cc2)cc(-c2ncco2)n1 [Compound 34, 4-[4-(2-aminoethyl)phenyl]-3-[2-methyl-6-(1,3-oxazol-2-yl)pyrimidin-4-yl]oxybenzonitrile] | 10 to 1000 |
| Cc1nc(OCC(F)(F)F)cc(Oc2cc(C#N)ccc2-c2ccc(CCN)cc2)n1 [Compound 35, 4-[4-(2-aminoethyl)phenyl]-3-[2-methyl-6-(2,2,2-trifluoroethoxy)pyrimidin-4-yl]oxybenzonitrile] | 10 to 1000 |
| Cc1nc(OCCCF)cc(Oc2cc(C#N)ccc2-c2ccc(CCN)cc2)n1 [Compound 36, 4-[4-(2-aminoethyl)phenyl]-3-[6-(3-fluoropropoxy)-2-methylpyrimidin-4-yl]oxybenzonitrile] | 10 to 1000 |
| Cc1nc(OCCC(F)(F)F)cc(Oc2cc(C#N)ccc2-c2ccc(CCN)cc2)n1 [Compound 37, 4-[4-(2-aminoethyl)phenyl]-3-[2-methyl-6-(3,3,3-trifluoropropoxy)pyrimidin-4-yl]oxybenzonitrile] | > 1000 |
| CCCCOc1cc(Oc2cc(C#N)ccc2-c2ccc(CCN)cc2)nc(C)n1 [Compound 38, 4-[4-(2-aminoethyl)phenyl]-3-(6-butoxy-2-methylpyrimidin-4-yl)oxybenzonitrile] | > 1000 |
| Cc1nc(OCC2CCCCC2)cc(Oc2cc(C#N)ccc2-c2ccc(CCN)cc2)n1 [Compound 39, 4-[4-(2-aminoethyl)phenyl]-3-[6-(cyclohexylmethoxy)-2-methylpyrimidin-4-yl]oxybenzonitrile] | > 1000 |
| Cc1nc(Oc2cc(C#N)ccc2-c2ccc(CCN)cc2)cc(-c2nccs2)n1 [Compound 40, 4-[4-(2-aminoethyl)phenyl]-3-[2-methyl-6-(1,3-thiazol-2-yl)pyrimidin-4-yl]oxybenzonitrile] | > 1000 |
| Cc1nc(OCCC(C)C)cc(Oc2cc(C#N)ccc2-c2ccc(CCN)cc2)n1 [Compound 41, 4-[4-(2-aminoethyl)phenyl]-3-[2-methyl-6-(3-methylbutoxy)pyrimidin-4-yl]oxybenzonitrile] | > 1000 |
| Cc1nc(OCCC(C)(C)C)cc(Oc2cc(C#N)ccc2-c2ccc(CCN)cc2)n1 [Compound 42, 4-[4-(2-aminoethyl)phenyl]-3-[6-(3,3-dimethylbutoxy)-2-methylpyrimidin-4-yl]oxybenzonitrile] | > 1000 |
| Cc1nc(OCC2CCC2)cc(Oc2cc(C#N)ccc2-c2ccc(CCN)cc2)n1 [Compound 43, 4-[4-(2-aminoethyl)phenyl]-3-[6-(cyclobutylmethoxy)-2-methylpyrimidin-4-yl]oxybenzonitrile] | 10 to 1000 |
| Cc1nc(OCC2CCCC2)cc(Oc2cc(C#N)ccc2-c2ccc(CCN)cc2)n1 [Compound 44, 4-[4-(2-aminoethyl)phenyl]-3-[6-(cyclopentylmethoxy)-2-methylpyrimidin-4-yl]oxybenzonitrile] | > 1000 |
| Cc1nc(Oc2cc(C#N)ccc2-c2ccc(CCN)cc2)cc(OC2CCCC2)n1 [Compound 45, 4-[4-(2-aminoethyl)phenyl]-3-(6-cyclopentyloxy-2-methylpyrimidin-4-yl)oxybenzonitrile] | 10 to 1000 |
| Cc1nc(Oc2cc(C#N)ccc2-c2ccc(CCN)cc2)cc(C2CCCC2)n1 [Compound 46, 4-[4-(2-aminoethyl)phenyl]-3-(6-cyclopentyl-2-methylpyrimidin-4-yl)oxybenzonitrile] | < 10 |
| Cc1nc(OCC(C)(C)C)cc(Oc2cc(C#N)ccc2-c2ccc(CCN)cc2)n1 [Compound 47, 4-[4-(2-Aminoethyl)phenyl]-3-[6-(2,2-dimethylpropoxy)-2-methylpyrimidin-4-yl]oxybenzonitrile] | 10 to 1000 |
| COCCOc1cc(Oc2cc(C#N)ccc2-c2ccc(CCN)cc2)nc(C)n1 [Compound 48, 4-[4-(2-aminoethyl)phenyl]-3-[6-(2-methoxyethoxy)-2-methylpyrimidin-4-yl]oxybenzonitrile] | 10 to 1000 |
| Cc1nc(OCC2(C)CC2)cc(Oc2cc(C#N)ccc2-c2ccc(CCN)cc2)n1 [Compound 49, 4-[4-(2-aminoethyl)phenyl]-3-[2-methyl-6-[(1-methylcyclopropyl)methoxy]pyrimidin-4-yl]oxybenzonitrile] | 10 to 1000 |
| N#Cc1ccc(-c2ccc(CCN)cc2)c(Oc2cnnc(N3CCOCC3)c2)c1 [Compound 50, 4-[4-(2-aminoethyl)phenyl]-3-(6-morpholin-4-ylpyridazin-4-yl)oxybenzonitrile] | < 10 |
| N#Cc1ccc(-c2ccc(C(O)CN)cc2)c(Oc2cnnc(N3CCOCC3)c2)c1 (stereo not shown) [Compound 51, 4-[4-(2-amino-1-hydroxyethyl)phenyl]-3-(6-morpholin-4-ylpyridazin-4-yl)oxybenzonitrile] | > 1000 |
| Cc1nc(Oc2cc(C#N)ccc2-c2ccc(C3CNC3)cc2)cc(N2CCOCC2)n1 [Compound 52, 4-[4-(azetidin-3-yl)phenyl]-3-(2-methyl-6-morpholin-4-ylpyrimidin-4-yl)oxybenzonitrile] | 10 to 1000 |
| Cc1nc(Oc2cc(C#N)ccc2-c2ccc(C3CCNC3)cc2)cc(N2CCOCC2)n1 (stereo not shown) [Compound 53, 3-(2-methyl-6-morpholin-4-ylpyrimidin-4-yl)oxy-4-(4-pyrrolidin-3-ylphenyl)benzonitrile] | 10 to 1000 |

From patent publication US20230167073A1 (Teijin Pharma Limited, priority 2020, published 2023)
